biological target: T1, S-nitrosoglutathione reductase (GSNOR) (Homo sapiens, UniProt P11766); assay: GSNOR assay (inhibition of GSNOR activity, NADH absorbance at 340 nm); assay type: biochemical; conditions: GSNOR inhibitor activity, Tables 1-6; read-out: IC50 range
T1 construct: made in house; host or cells: E. coli
Method: Various compounds were tested in vitro for their ability to inhibit GSNOR activity.
GSNOR expression and purification is described in Biochemistry 2000, 39, 10720-10729.
Pre-cultures were grown from stabs of a GSNOR glycerol stock in 2XYT media containing 100 ug/ml ampicillin after an overnight incubation at 37° C. […] GSNOR expression was induced with 0.1% arabinose in an overnight incubation at 20° C.
E. coli cell paste was lysed by nitrogen cavitation and the clarified lysate purified by Ni affinity chromatography on an AKTA FPLC (Amersham Pharmacia). The column was eluted in 20 mM Tris pH 8.0/250 mM NaCl with a 0-500 mM imidazole gradient. Eluted GSNOR fractions containing the Smt-GSNOR fusion were digested overnight with Ulp-1 at 4° C. to remove the affinity tag then re-run on the Ni column under the same conditions. GSNOR was recovered in the flowthrough fraction and for crystallography is further purified by Q-Sepharose and Heparin flowthrough chromatography in 20 mM Tris pH 8.0, 1 mM DTT, 10 uM ZnSO4.
GSNOR assay: GSNO and enzyme/NADH Solutions are made up fresh each day. The solutions are filtered and allowed to warm to room temperature. GSNO solution: 100 mM NaPO4 (pH 7.4), 0.480 mM GSNO. 396 μL of GSNO Solution is added to a cuvette followed by 8 μL of test compound in DMSO (or DMSO only for full reaction control) and mixed with the pipette tip. Compounds to be tested are made up at a stock concentration of 10 mM in 100% DMSO. 2 fold serial dilutions are done in 100% DMSO. 8 μL of each dilution are added to an assay so that the final concentration of DMSO in the assay is 1%. The concentrations of compounds tested range from 100 to 0.003 μM. Enzyme/NADH solution: 100 mM NaPO4 (pH 7.4), 0.600 mM NADH, 1.0 μg/mL GSNO Reductase. 396 μL of the Enzyme/NADH solution is added to the cuvette to start the reaction. The cuvette is placed in the Cary 3E UV/Visible Spectrophotometer and the change in 340 nm absorbance/min at 25° C. is recorded for 3 minutes. The assays are done in triplicate for each compound concentration. IC50's for each compound are calculated using the standard curve analysis in the Enzyme Kinetics Module of SigmaPlot.
Final assay conditions: 100 mM NaPO4, pH 7.4, 0.240 mM GSNO, 0.300 mM NADH, 0.5 μg/mL GSNO Reductase, and 1% DMSO. Final volume: 800 μL/cuvette.

T1 sequence (P11766 whole entry): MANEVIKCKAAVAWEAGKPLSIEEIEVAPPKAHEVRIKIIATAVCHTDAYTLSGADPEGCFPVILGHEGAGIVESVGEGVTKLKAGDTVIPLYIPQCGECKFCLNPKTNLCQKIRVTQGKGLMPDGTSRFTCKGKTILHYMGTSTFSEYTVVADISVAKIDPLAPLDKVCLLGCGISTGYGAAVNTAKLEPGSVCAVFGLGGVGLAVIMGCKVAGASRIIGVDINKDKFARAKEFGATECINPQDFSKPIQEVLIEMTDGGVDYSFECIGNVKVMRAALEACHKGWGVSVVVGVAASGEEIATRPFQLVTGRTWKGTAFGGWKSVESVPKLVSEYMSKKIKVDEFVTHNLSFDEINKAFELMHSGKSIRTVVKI

SMILES | IC50 [nM]
O=C(O)C1CC=C(c2ccc3cc(O)ccc3n2)CC1 (centres unmarked) [Compound I-16] | 100 to 1000
CC(F)(F)c1oc2cc(O)ccc2c(=O)c1-c1ccc(C(=O)O)cc1 [IV-16] | < 100
O=C(O)c1ccc(COc2ccc(O)c(F)c2F)c(F)c1 [VI-21, 4-((2,3-difluoro-4-hydroxyphenoxy)methyl)-3-fluorobenzoic acid] | < 100
O=c1c(-c2ccc(-c3nnn[nH]3)c(Cl)c2)c(C(F)(F)F)oc2cc(O)ccc12 [IV-42] | < 100
O=C(O)c1ccc(-c2c(C(F)(F)F)oc3cc(O)ccc3c2=O)cc1Cl [IV-18] | < 100
O=C(O)c1ccc(-c2cc3ccc(O)cc3cn2)c(F)c1 [II-24, 3-fluoro-4-(7-hydroxyisoquinolin-3-yl)benzoic acid] | < 100
COc1cc(C(=O)O)ccc1-c1cc(F)c2cc(O)ccc2n1 [Compound I-48, 4-(4-fluoro-6-hydroxyquinolin-2-yl)-3-methoxybenzoic acid] | < 100
O=C(O)c1ccc(-c2cc(F)c3cc(O)ccc3n2)c(F)c1 [Compound I-40, 3-fluoro-4-(4-fluoro-6-hydroxyquinolin-2-yl)benzoic acid] | < 100
O=C(O)c1ccc(-c2ncc3cc(O)ccc3n2)c(F)c1 [II-6] | < 100
COc1cc(C(=O)O)ccc1-c1cc(F)c2c(F)c(O)ccc2c1 [III-43, 4-(4,5-difluoro-6-hydroxynaphthalen-2-yl)-3-methoxybenzoic acid] | < 100
O=C(O)C1CCN(c2nc3ccc(O)cc3cc2C(F)(F)F)CC1 [Compound I-41] | < 100
O=C(O)c1ccc(-c2ccc3cc(O)ccc3c2)nc1 [III-7] | 100 to 1000
N#Cc1cc(C(=O)O)ccc1-c1ccc2cc(O)ccc2n1 [Compound I-49, 3-cyano-4-(6-hydroxyquinolin-2-yl)benzoic acid] | < 100
O=C(O)c1cnc(-c2ccc3cc(O)ccc3c2)nc1 [III-9] | 100 to 1000
CN(C)c1cc(C(=O)O)ccc1-c1ccc2cc(O)ccc2n1 [Compound I-25] | < 100
O=C(O)C1CCC(c2ccc3cc(O)ccc3n2)CC1 (centres unmarked) [Compound I-6] | 100 to 1000
O=C(O)c1ccc(Oc2coc3cc(O)ccc3c2=O)cc1 [Compound V-12, 4-(7-hydroxy-4-oxo-4H-chromen-3-yloxy)benzoic acid] | 1000 to 10000
O=c1c(Oc2ccc(-c3nnn[nH]3)cc2)c(C(F)(F)F)oc2cc(O)ccc12 [Compound V-6, 3-(4-(1H-tetrazol-5-yl)phenoxy)-7-hydroxy-2-(trifluoromethyl)-4H-chromen-4-one] | 1000 to 10000

SMILES | IC50 [nM]
O=c1c(-c2ccc(-c3nnn[nH]3)cc2)c(C(F)F)oc2cc(O)ccc12 [IV-27] | < 100
O=C(O)c1ncc(-c2ccc3cc(O)ccc3c2)cn1 [III-14] | 1000 to 10000
O=C(O)c1ccc(CC(=O)c2ccc(O)c(F)c2O)c(F)c1 [VI-27, 3-fluoro-4-(2-(3-fluoro-2,4-dihydroxyphenyl)-2-oxoethyl)benzoic acid] | 100 to 1000
O=C(O)c1ccc(-c2ccc3cc(O)ccc3n2)c(O)c1 [Compound I-55, 3-hydroxy-4-(6-hydroxyquinolin-2-yl)benzoic acid] | < 100
O=C(O)c1ccc(NCc2ccc(O)c(F)c2)c(F)c1 [VI-31, 3-fluoro-4-((3-fluoro-4-hydroxybenzyl)amino)benzoic acid] | 1000 to 10000
CN(C)c1cc(-c2ccc(C(=O)O)cc2)nc2ccc(O)cc12 [Compound I-47, 4-(4-(dimethylamino)-6-hydroxyquinolin-2-yl)benzoic acid] | 100 to 1000
O=C(O)c1ccc(-c2ccc3cc(O)ccc3n2)cc1O [Compound I-60, 2-hydroxy-4-(6-hydroxyquinolin-2-yl)benzoic acid] | < 100
COc1cc(Oc2c(C(F)(F)F)oc3cc(O)ccc3c2=O)ccc1C(=O)O [Compound V-5] | 1000 to 10000
Cc1cc(C(=O)O)ccc1-c1ccc2cc(O)ccc2c1 [III-37, 4-(6-hydroxynaphthalen-2-yl)-3-methylbenzoic acid] | < 100
N#Cc1cc(C(=O)O)ccc1-c1ccc2cc(O)ccc2c1 [III-6] | < 100
O=C(O)c1ccc(-c2ccc3cc(O)ccc3n2)c(Br)c1 [Compound I-46, 3-bromo-4-(6-hydroxyquinolin-2-yl)benzoic acid] | < 100
O=C(O)c1ccc(-c2ccc3cc(O)ccc3c2F)cc1 [III-26, 4-(1-fluoro-6-hydroxynaphthalen-2-yl)benzoic acid] | < 100
O=c1nc(-c2ccc(-c3ccc4cc(O)ccc4n3)cc2)[nH]o1 [Compound I-12] | < 100
O=C(O)c1ccc(-c2cc(F)c3cc(O)ccc3n2)cc1 [Compound I-26, 4-(4-fluoro-6-hydroxyquinolin-2-yl)benzoic acid] | < 100
COc1cc(C(=O)O)ccc1-c1ncc2cc(O)ccc2n1 [II-5] | < 100
CC(C(=O)c1ccc(O)cc1O)c1ccc(C(=O)O)cc1 (centres unmarked) [VI-12, 4-(1-(2,4-dihydroxyphenyl)-1-oxopropan-2-yl)benzoic acid] | 1000 to 10000
O=C(O)[C@H]1CC[C@H](c2nc3ccc(O)cc3cc2C(F)(F)F)CC1 [Compound I-43] | < 100

same assay, conditions: Table 7; GSNOR inhibition, IC50 range class a/b/c; read-out: IC50

SMILES | IC50 [nM]
Cn1c(-c2ccc(O)cc2)ccc1-c1ccc(C(=O)O)s1 [VII-24, 5-(5-(4-hydroxyphenyl)-1-methyl-1H-pyrrol-2-yl)thiophene-2-carboxylic acid] | 100 to 1000
O=C(O)c1ccc(-c2csc(-c3ccc(O)cc3)n2)cc1 [VII-2, 4-(2-(4-hydroxyphenyl)thiazol-4-yl)benzoic acid] | 100 to 1000
CC(C)n1c(-c2ccc(O)cc2)ccc1-c1ccc(C(=O)O)cc1 [VII-32, 4-(5-(4-hydroxyphenyl)-1-isopropyl-1H-pyrrol-2-yl)benzoic acid] | < 100
CC(C)OCCCn1c(-c2ccc(O)cc2)ccc1-c1ccc(C(=O)O)cc1 [VII-31, 4-(5-(4-hydroxyphenyl)-1-(3-isopropoxypropyl)-1H-pyrrol-2-yl)benzoic acid] | < 100
O=C(O)c1ccc(-c2ccc(-c3ccc(O)cc3)s2)cc1 [VII-4, 4-(5-(4-hydroxyphenyl)thiophen-2-yl)benzoic acid] | 100 to 1000
O=C(O)c1ccc(-c2ccc(-c3ccc(O)cc3)[nH]2)cc1 [VII-23, 4-(5-(4-hydroxyphenyl)-1H-pyrrol-2-yl)benzoic acid] | 1000 to 10000
CCOCCn1c(-c2ccc(O)cc2)ccc1-c1ccc(C(=O)O)cc1 [VII-35, 4-(1-(2-ethoxyethyl)-5-(4-hydroxyphenyl)-1H-pyrrol-2-yl)benzoic acid] | < 100
CCCCCCn1c(-c2ccc(O)cc2)ccc1-c1ccc(C(=O)O)cc1 [VII-34, 4-(1-hexyl-5-(4-hydroxyphenyl)-1H-pyrrol-2-yl)benzoic acid] | < 100

same assay, conditions: Table 8; GSNOR inhibition, IC50 range class a/b/c; read-out: IC50

SMILES | IC50 [nM]
O=C(O)c1ccc(-c2nc3ccc(O)cc3s2)cc1 [VIII-7, 4-(6-hydroxybenzo[d]thiazol-2-yl)benzoic acid] | 100 to 1000
Cn1c(-c2ccc(C(=O)O)cc2)nc2ccc(O)cc2c1=O [VIII-10, 4-(6-hydroxy-3-methyl-4-oxo-3,4-dihydroquinazolin-2-yl)benzoic acid] | < 100
O=c1c2ccc(O)cc2ccn1[C@H]1CC[C@H](C(=O)O)CC1 [VIII-14, (trans)-4-(6-hydroxy-1-oxoisoquinolin-2(1H)-yl)cyclohexanecarboxylic acid] | 1000 to 10000
O=C(O)c1ccc(N2CCc3cc(O)ccc3C2=O)cc1 [VIII-4, 4-(6-hydroxy-1-oxo-3,4-dihydroisoquinolin-2(1H)-yl)benzoic acid] | < 100

Reference: patent publication US20140094465A1, “Compounds as S-Nitrosoglutathione Reductase Inhibitors” (N30 PHARMACEUTICALS, INC., priority 2011, published 2014)
